{"source": "patent US20030207813A1", "about": "“Retroviral protease inhibitor combinations” (priority 1995, published 2003)", "tested_on": "NL4(P34-003)", "experiment": "Viral isolate resistance assay per Markowitz et al., NL4(P34-003)", "type": "cell-based, HIV-1", "details": "Human immunodeficiency virus 1; Table 11; selected against Example 9, 34 passages", "from_the_text": "RF represents the HIV-1 strain HIV-LRF and RFR represents a mixture of resistant strains obtained by selection of RF against the compound of Example 1. RFR comprises a mixture of viral strains having protease genotypes of G48V (14/40 clones); G48V, V82A (18/40 clones); G48V, L90S (2/40 clones); G48V, 154T, V82A (1/40 clones); G48M (1/40 clones); G48V, Q61H (1/40 clones); V13I, G48V (1/40 clones); G48V, F53L, V82A (1/40 clones); and G48V, V82A, C95Y (1/40 clones). RFR2 represents a mixture of resistant strains obtained by cloning RFR by three rounds of growth at limiting dilution. RFR2 comprises a mixture of viral strains having protease genotypes of G48V, V82A (13/15 clones); G17E, G48V, V82A (1/15 clones); and G48V, V82A, N37D, N88D (1/15 clones). RFRR represents a mixture of resistant strains obtained by selection of RF against the compounds of Examples 1 and 2 and then cloning by three rounds of growth at limiting dilution. RFRR comprises a mixture of viral strains having protease genotypes of G48V, 154T, L63P, V82A (7/9 clones); G48V, 154T, L63P, V82A, N88S (1/9 clones); and G48V, 154T, L63P, G73M, V82A (1/9 clones). SF162 represents the HIV-1 strain SF-162 and SF162R represents a mixture of resistant strains obtained by selection of SF162 against the compound of Example 1. SF162R comprises a mixture of viral strains having protease genotypes of M461, F53L, L63P, A71V, N88D (2/3 clones); and M46I, F53L, L63P, A71V, N88D, Q92R (1/3 clones). 89-959 represents the HIV-1 strain 89-959 and 89-959R represents a mixture of resistant strains obtained by selection of 89-959 against the compound of Example 2. 89-959R comprises a mixture of viral strains having protease genotypes of N88S (4/5 clones); and D25N, T26A, D30N, D37N, R41K, G73D, R87K, N88S (1/4 clones). NL4 represents the HIV-1 strain HIV-1NL4-3. NL4(G48V) represents a strain having a synthetically generated site-directed mutation in the protease from glycine to valine at amino acid position number 48. […]", "data": [{"smiles": "CC(C)(C)NC(=O)[C@@H]1CN(Cc2cccnc2)CCN1C[C@@H](O)C[C@@H](Cc1ccccc1)C(=O)N[C@H]1c2ccccc2C[C@H]1O", "note": "[Example 5, N-(2(R)-Hydroxy-1(S)-indanyl)-2(R)-phenylmethyl-4(S)-hydroxy-5-(1-(4-(3-pyridylmethyl)-2(S)-N′-(t-butylcarboxamido)-piperazinyl))-pentaneamide]", "values": [{"measurement": "EC50", "result": 400, "unit": "nM"}]}]}
